Measurements from paper PMC6522912, “Evaluation of the published kinase inhibitor set to identify multiple inhibitors of bacterial ATP-dependent mur ligases” (Journal of Enzyme Inhibition and Medicinal Chemistry, 2019).

How the values were obtained:
E. coli MurD = E. coli MurD (Escherichia coli, UniProt P14900); assay: biochemical; conditions: for remaining activity at 100 µM: 0.25 h, Table S1, PKIS screening, read-out: RA [%] at 100 µM MurD
Procedure: (§1) Inhibition of the Mur ligases was determined using the malachite green assay, with slight modifications.
(§2) In all cases, the final concentration of DMSO was 5% (v/v). After incubation for 15 min at 37 °C, the enzyme reaction was terminated by addition of 100 µM Biomol green reagent, and the absorbance was measured at 650 nm after 5 min. All of the experiments were run in duplicate. Residual activities were calculated with respect to control assays without the tested compounds, but with the 5% DMSO carrier.
(§3) The published kinase inhibitor set compounds were evaluated for inhibition of MurC, D and F ligases from E. coli using the Malachite green assay, which detects orthophosphate generated during enzymatic reactions. To avoid non-specific inhibition due to aggregate formation, all of the compounds were tested in the presence of detergent (0.005% Triton-X114). The data are presented as the residual activities of these Mur ligases in the presence of 100 µM of each test compound (Supporting Information Table S1).

E. coli MurC = E. coli MurC (Escherichia coli, UniProt P17952); assay: Malachite green inhibition assay, MurC; type: biochemical; conditions: for RA (%) MurC: Table S3, aza stilbene compounds; for remaining activity at 100 µM: 0.25 h, read-out: RA [%] at 100 µM MurC
Chain of E. coli MurC (P17952 whole entry): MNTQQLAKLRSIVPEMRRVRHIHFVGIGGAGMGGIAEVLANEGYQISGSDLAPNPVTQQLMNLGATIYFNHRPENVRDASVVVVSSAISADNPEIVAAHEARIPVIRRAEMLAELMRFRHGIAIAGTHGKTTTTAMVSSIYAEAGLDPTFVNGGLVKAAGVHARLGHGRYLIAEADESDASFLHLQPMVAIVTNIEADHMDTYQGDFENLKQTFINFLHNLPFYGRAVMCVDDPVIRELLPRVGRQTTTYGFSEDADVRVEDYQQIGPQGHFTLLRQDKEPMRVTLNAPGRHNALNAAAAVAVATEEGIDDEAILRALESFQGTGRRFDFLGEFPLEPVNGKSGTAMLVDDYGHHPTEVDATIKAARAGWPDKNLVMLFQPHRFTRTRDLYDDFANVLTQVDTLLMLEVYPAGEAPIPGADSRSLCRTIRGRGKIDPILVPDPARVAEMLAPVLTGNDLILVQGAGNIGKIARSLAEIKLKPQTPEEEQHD
Procedure: as §1, §2
as §3, with “S1). […] Additionally, regarding the data of profiled compounds in large panels of human kinase assays[41]” for “S1).”

E. coli MurF = E. coli MurF (Escherichia coli, UniProt P11880); assay: biochemical; conditions: for RA (%) MurF: Table S3, aza stilbene compounds; for remaining activity at 100 µM: 0.25 h, read-out: RA [%] at 100 µM MurF
Chain of E. coli MurF (P11880 whole entry): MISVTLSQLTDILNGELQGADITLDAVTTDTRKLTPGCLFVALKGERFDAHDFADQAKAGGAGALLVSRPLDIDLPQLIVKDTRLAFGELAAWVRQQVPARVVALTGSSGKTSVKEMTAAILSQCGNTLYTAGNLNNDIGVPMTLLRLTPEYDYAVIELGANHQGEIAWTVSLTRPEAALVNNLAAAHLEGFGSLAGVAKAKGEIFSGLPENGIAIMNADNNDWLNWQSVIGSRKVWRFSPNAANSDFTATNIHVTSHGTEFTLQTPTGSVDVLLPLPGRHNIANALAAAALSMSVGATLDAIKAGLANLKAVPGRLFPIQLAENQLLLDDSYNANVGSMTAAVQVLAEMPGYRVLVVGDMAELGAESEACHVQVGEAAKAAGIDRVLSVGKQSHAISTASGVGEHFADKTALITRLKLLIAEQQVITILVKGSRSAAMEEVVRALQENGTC
Procedure: as §1, §2
as §3, with “S1). […] Additionally, regarding the data of profiled compounds in large panels of human kinase assays[41]” for “S1).”

Chain of E. coli MurD (P14900 whole entry): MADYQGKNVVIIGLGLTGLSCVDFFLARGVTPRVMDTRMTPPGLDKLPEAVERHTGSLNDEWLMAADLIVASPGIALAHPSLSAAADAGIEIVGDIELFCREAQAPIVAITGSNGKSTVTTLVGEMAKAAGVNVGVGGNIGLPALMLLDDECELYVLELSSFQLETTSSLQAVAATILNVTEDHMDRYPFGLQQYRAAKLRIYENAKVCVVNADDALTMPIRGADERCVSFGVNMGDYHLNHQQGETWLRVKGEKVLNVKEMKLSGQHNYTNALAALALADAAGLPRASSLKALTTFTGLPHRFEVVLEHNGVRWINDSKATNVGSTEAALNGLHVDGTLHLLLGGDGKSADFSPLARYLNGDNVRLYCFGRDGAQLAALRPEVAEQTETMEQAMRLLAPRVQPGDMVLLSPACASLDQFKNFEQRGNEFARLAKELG

| Compound | remaining activity at 100 µM (E. coli MurD) [%] | remaining activity at 100 µM (E. coli MurC; Table S1, PKIS screening) [%] | remaining activity at 100 µM (E. coli MurF; Table S1, PKIS screening) [%] | other results |
| --- | --- | --- | --- | --- |
| Cc1cc(-c2ccccn2)cc(C)c1C=Cc1cncc(-c2nn[nH]n2)c1 [Compound 6] |  |  |  | RA (%) MurD (E. coli MurD): 83%; RA (%) MurC (E. coli MurC): 59%; RA (%) MurF (E. coli MurF): 76% |
| Cc1cc(O)cc(C)c1C=Cc1cncc(-c2nn[nH]n2)c1 [Compound 7] |  |  |  | RA (%) MurD (E. coli MurD): 91%; RA (%) MurC (E. coli MurC): 70%; RA (%) MurF (E. coli MurF): 90% |
| CNC(=O)c1cncc(C=Cc2ccccc2C)c1 [Compound 8] |  |  |  | RA (%) MurD (E. coli MurD): 91%; RA (%) MurC (E. coli MurC): 100%; RA (%) MurF (E. coli MurF): 85% |
| CNC(=O)c1cncc(C=Cc2c(C)cccc2C)c1 [Compound 9] |  |  |  | RA (%) MurD (E. coli MurD): 83%; RA (%) MurC (E. coli MurC): 85%; RA (%) MurF (E. coli MurF): 54% |
| CNC(=O)c1cncc(C=Cc2c(Cl)cccc2Cl)c1 [Compound 10] |  |  |  | RA (%) MurD (E. coli MurD): 80%; RA (%) MurC (E. coli MurC): 81%; RA (%) MurF (E. coli MurF): 77% |
| CNC(=O)c1cncc(C=Cc2ccccc2Cl)c1 [Compound 11] |  |  |  | RA (%) MurD (E. coli MurD): 87%; RA (%) MurC (E. coli MurC): 68%; RA (%) MurF (E. coli MurF): 90% |
| CCc1cccc(CC)c1C=Cc1cncc(C(=O)NC)c1 [Compound 12] |  |  |  | RA (%) MurD (E. coli MurD): 74%; RA (%) MurC (E. coli MurC): 67%; RA (%) MurF (E. coli MurF): 76% |
| CNC(=O)Oc1cc(C)c(C=Cc2cncc(C(=O)NC)c2)c(C)c1 [Compound 13] |  |  |  | RA (%) MurD (E. coli MurD): 69%; RA (%) MurC (E. coli MurC): 68%; RA (%) MurF (E. coli MurF): 87% |
| Cc1cc(O)cc(C)c1C=Cc1cncc(C(N)=O)c1 [Compound 14] |  |  |  | RA (%) MurD (E. coli MurD): 89%; RA (%) MurC (E. coli MurC): 89%; RA (%) MurF (E. coli MurF): 75% |
| COC(=O)c1cncc(C=Cc2c(C)cc(O)cc2C)c1 [Compound 15] |  |  |  | RA (%) MurD (E. coli MurD): 69%; RA (%) MurC (E. coli MurC): 98%; RA (%) MurF (E. coli MurF): 81% |
| Cc1cc(O)cc(C)c1C=Cc1cncc(C(=O)OC(C)(C)C)c1 [Compound 16] |  |  |  | RA (%) MurD (E. coli MurD): 96%; RA (%) MurC (E. coli MurC): 75%; RA (%) MurF (E. coli MurF): 69% |
| COc1ccc2ncnc(Nc3ccc(OCc4ccccc4)cc3)c2c1 [GI261520A] | 31 | 58 | 81 |  |
| O=C1Nc2ccccc2/C1=C1\CCc2cc(O)ccc21 [GR105659X] | 100 | 85 | 100 |  |
| c1ccc(Cc2nc3ccc(Nc4ncnc5ccccc45)cc3[nH]2)cc1 [GR269666A] | 83 | 77 | 96 |  |
| CC1=C(C(=O)Nc2ccc3[nH]ncc3c2)C(c2ccc(F)cc2)NC(=O)N1 (stereo not shown) [GSK180736A] | 79 | 80 | 85 |  |
| CN(C)C(=O)O[C@H]1CN[C@H](C#Cc2cc3ncnc(Nc4ccc(OCc5cccc(F)c5)c(Cl)c4)c3s2)C1 [GSK182497A] | 65 | 43 | 76 |  |
| CCNC(=O)O[C@H]1CN[C@H](C#Cc2cc3ncnc(Nc4ccc(OCc5cccc(F)c5)c(Cl)c4)c3s2)C1 [GSK192082A] | 70 | 39 | 50 |  |
| O=C(O[C@H]1CN[C@H](C#Cc2cc3ncnc(Nc4ccc5c(cnn5Cc5ccccc5)c4)c3s2)C1)N1CCOCC1 [GSK200398A] | 61 | 52 | 60 |  |
| COc1cc2ncn(-c3cc(OCCc4ccccc4)c(C(N)=O)s3)c2cc1OC [GSK204925A] | 68 | 56 | 63 |  |
| COc1cc2ncn(-c3cc(O[C@@H](C)c4ccccc4Cl)c(C(N)=O)s3)c2cc1OC [GSK237700A] |  |  | 75 |  |
| CCn1c(-c2nonc2N)nc2cnc(Oc3cccc(NC(=O)c4ccc(OCCN5CCOCC5)cc4)c3)cc21 [GSK269962B] | 58 | 57 | 66 |  |
| CC1=C(C(=O)Nc2ccc3[nH]ncc3c2)C(c2ccc3ccccc3c2)CC(=O)N1 (stereo not shown) [GSK270822A] | 81 | 66 | 68 |  |
| CC1=C(C(=O)Nc2ccc3[nH]ncc3c2)C(c2ccc(Cl)c(Cl)c2)CC(=O)N1 (stereo not shown) [GSK299115A] | 96 | 78 | 68 |  |
| CS(=O)(=O)CCNCc1cc(-c2cc3c(Nc4ccc(OCc5cccc(F)c5)c(Cl)c4)ncnc3s2)cs1 [GSK300014A] | 91 | 88 | 95 |  |
| COc1cc2ncn(-c3cc(OCc4cccs4)c(C(N)=O)s3)c2cc1OC [GSK312948A] | 72 | 98 | 79 |  |

| Compound | remaining activity at 100 µM (E. coli MurD) [%] | remaining activity at 100 µM (E. coli MurC; Table S1, PKIS screening) [%] | remaining activity at 100 µM (E. coli MurF; Table S1, PKIS screening) [%] | other results |
| --- | --- | --- | --- | --- |
| COc1ccc2ncn(-c3cc(O[C@H](C)c4ccccc4C(F)(F)F)c(C(N)=O)s3)c2c1 [GSK317315A] | 47 | 53 | 51 |  |
| CC1=C(C(=O)Nc2ccc3[nH]ncc3c2)C(c2ccc(F)cc2)NC(c2ccc(C(F)(F)F)nc2)=N1 (stereo not shown) [GSK317354A] | 96 | 68 | 96 |  |
| COc1cc2ncn(-c3cc(OCc4ccccc4S(C)(=O)=O)c(C#N)s3)c2cc1OC [GSK319347A] | 100 | 59 | 75 |  |
| CC1=C(C(=O)Nc2ccc3[nH]nc(C)c3c2)C(c2ccc(C(F)(F)F)cc2)CC(=O)N1 (stereo not shown) [GSK466314A] | 100 | 79 | 79 |  |
| CC1=C(C(=O)Nc2cc(Cl)c3[nH]ncc3c2)C(c2ccc(C(F)(F)F)cc2)CC(=O)N1 (stereo not shown) [GSK466317A] | 99 | 80 | 71 |  |
| CCn1c(-c2nonc2N)nc2c(C#CC(C)(C)O)ncc(OCC3CCNCC3)c21 [GSK554170A] | 89 | 85 | 96 |  |
| CCn1c(-c2nonc2N)nc2c(C#CCN)ncc(OCCCN)c21 [GSK561866B] | 82 | 52 | 66 |  |
| C[C@@H](Oc1cc(-n2cnc3ccc(OCC4CCN(C)CC4)cc32)sc1C(N)=O)c1ccccc1Cl [GSK571989A] | 53 | 51 | 53 |  |
| C[C@@H](Oc1cc(-n2cnc3ccc(OC4CCN(C)CC4)cc32)sc1C(N)=O)c1ccccc1Cl [GSK579289A] | 70 | 67 | 66 |  |
| COc1ccc(-c2ccncc2)cc1C(N)=O [GSK605714A] | 91 | 86 | 90 |  |
| CCn1c(-c2nonc2N)nc2c(C#CC(C)(C)O)ncc(OC[C@@H]3CCCN3)c21 [GSK614526A] | 89 | 65 | 100 |  |
| CCn1c(-c2nonc2N)nc2c(C#CC(C)(C)O)ncc(OC3CCNCC3)c21 [GSK619487A] | 86 | 77 | 100 |  |
| Cc1cc(O)cc(Nc2ccnc3cc(-c4ccccn4)ccc23)c1 [GSK3206866A] |  |  |  | RA [%] at 100 µM MurC (E. coli MurC; Table S1, PKIS screening): 76%; RA [%] at 100 µM MurF (E. coli MurF; Table S1, PKIS screening): 29% |
| Cc1cccc2c1NC(=O)C2=NNc1ccc(S(N)(=O)=O)cc1 [GW282536X] |  | 93 | 27 |  |
| c1ccc(Oc2ccc(Nc3ncc(-c4ccccc4)o3)cc2)cc1 [GW641155A] |  | 66 | 86 |  |
| NC(=O)c1cccc(Nc2nccc(Nc3cccc(F)c3)n2)c1 [GW759710A] |  | 100 | 100 |  |
| Clc1ccc(CNc2nccc(-c3cnn4ncccc34)n2)cc1 [GW781673X] |  | 79 | 63 |  |
| COc1cccc(-n2ncc3c(N/N=C/c4ccncc4)ncnc32)c1 [GW784752X] |  | 76 | 93 |  |
| CC(=O)NCc1cccc(C#Cc2cncnc2Nc2ccc(OCc3cccc(F)c3)c(Cl)c2)c1 [GW807930X] |  | 66 | 69 |  |
| COc1cccc(-c2c[nH]c3c(N/N=C/c4ccncc4)ncnc23)c1 [GW814408X] |  | 98 | 87 |  |
| COc1cc(Nc2ncc3c(C)nc(-c4cccc(C(F)(F)F)c4)n3n2)cc(OC)c1OC [GW837331X] |  | 65 | 89 |  |
| OCc1ccc(-c2nc(-c3ccccn3)c(-c3ccc4c(c3)OCO4)[nH]2)cc1 [SB-431533] |  | 95 | 75 |  |
| CCn1c(-c2nonc2N)nc2ccccc21 [SB-693162] |  | 78 | 100 |  |
| Cn1c(-c2nonc2N)nc2cnccc21 [SB-736290] |  | 71 | 90 |  |
